Laboratory results: patent US12076331B2, “Inositol derivatives for use in pathological crystallization” (ETH Zurich, priority 2015, dated 2024)

What was measured:
[1] = reported, Schantl et al. 2020; cited from earlier work
[2] = test system: RPTEC/TERT 1 human proximal tubule cells; experiment: RNA sequencing of Ca/P treated RPTEC; type: cell-based; details: 50 μM, 5/7 mM Ca/P, 24 h
From the text: A) Heatmap and hierarchical clustering of relative gene expression levels determined by RNA sequencing. […] Weighted set coverage of gene ontology terms and their respective enrichment score for differentially expressed genes in the Ca/P vs. medium control group is plotted (all FDR≤0.05). D) Normalized count of gene transcripts (FPKM—fragments per kilobase of exon model per million reads mapped) involved in inflammatory responses, ECM composition, cell proliferation and tissue homeostasis of the different treatment groups is plotted (mean+SD, N=3).
Cells were cultured as described in the imaging assay and treated with a medium control (ProxUp basal medium containing 1/1 mM Ca/P), 5/7 mM Ca/P, 5/7 mM Ca/P in medium containing 50 µM (OEG2)2-IP4 or 50 µM (OEG2)2-IP4 in medium for 24 h. Total RNA was extracted using the RNeasy kit (Quiagen) according to the manufacturer's instructions. Three wells per sample group were prepared and total RNA extracted of those 3 wells pooled. mRNA was purified and RNAseq library was prepared using the TrueSeq RNA kit (Illumina). […] Reads were aligned to the human reference genome GRCh38.p10 using the STAR tool (https://github.com/alexdobin/STAR) and transcripts quantified using the Kallisto program (42). […] For comparison of expression levels of the selected genes, the fragments per kilobase of exon model per million reads mapped (FPKM) were used. […]

[3] = previous study, Kletzmayr et al. 2020; cited from earlier work
[4] = test system: RPTEC/TERT 1 human proximal tubule cells; experiment: Imaging assay of CaP adhesion/deposition and cellular changes on RPTEC monolayers; type: cell-based
From the text: (A) Heatmap and hierarchical clustering of extracted image features. (B) Selected single features describing cellular changes upon increasing (OEG2)2-IP4 concentrations are depicted. Total cell count, dead cell count, single cell area and single cell solidity, a measure of cell compactness, are shown. (C) Selected single features describing changes in the CaP deposition and membrane pattern upon increasing (OEG2)2-IP4 concentrations are depicted. The total area of the binary calcein staining, colorimetric quantification of calcium content extracted from the monolayer, the maximum intensity of the calcein fluorescence, structural similarity index metric (SSIM) and the correlation of the CellMask channel image are shown. (D) Example brightfield, calcein, CellMask and EthD channel images and two zoomed-in regions of interests (ROI) of RPTEC treated with 13 μM (OEG2)2-IP4 are shown. Mean scaled values per individual experiment are plotted (N=3). Pos.ctrl presents treatment with 5/7 mM Ca/P, neg.ctrl presents medium without Ca/P spiking (=1/1 mM Ca/P present in normal cell medium). Mean of three individual experiments and SD is plotted as grey horizontal and vertical line respectively, one-way ANOVA with Dunnet's multiple comparison between each concentration to pos. ctrl was performed (* p<0.01).
RPTEC/TERT 1 monolayers at confluence were treated with medium spiked with 7 mM disodium phosphate, 5 mM calcium chloride and compound and were incubated for 24 h. The amount of CaP deposits and the extent of cell injury were detected by calcein and EthD staining, respectively. Fluorescence images were quantified using Matlab. Quantification of the area covered with CaP deposition on RPTEC monolayers with (A) OEG2-IP5, (B) OEG11-IP5, (C) (OEG2)2-IP4, and (D) OEG8-(IP5)2 treatment. (N=3, mean+SD, one-way ANOVA with Dunnett's multiple comparison, * p<0.05, ** p<0.01, *** p<0.001).
RPTEC/TERT 1 human proximal tubule cells (RPTEC) were cultured in T75 tissue culture flasks using ProxUp basal medium mixed with ProxUp supplements at 37° C. and 5% CO2 according to manufacturer's recommendations. Cells were used up to passage 30 and regularly tested for Mycoplasma infections. For experiments, RPTEC were cultured in 24-well plates at a seeding density of 150′000 cells/cm^2. Cell viability assessment and cell counting before seeding was performed using an automated cell counter (BioRad TC 20, Hercules, CA, USA).
For the comparison of selected IP6 analogues, ProxUp basal medium was prepared with the selected inhibitor and added to each well. Then, CaP precipitation was induced by direct addition of first, phosphate and second, calcium. Final concentrations of 7 mM phosphate and 5 mM calcium were used. Cells were incubated for 24 h at 37° C. and 5% CO2. Spiked medium was removed, and cells were washed twice with PBS before staining.
For staining, ProxUp basal medium was mixed with calcein (500 nM final concentration), EthD (6 μM final concentration), CellMask stain ([…]) and Hoechst 33342. Staining mixture was added to RPTEC and cells were incubated for 30 min in the dark at 37° C. and 5% CO2. Staining solution was removed, cells were washed with PBS once and ProxUp basal medium was added. Cells were immediately imaged after staining. Images were obtained by epifluorescence microscopy at 37° C., using a Leica CTR6000 microscope. For quantification 3 wells/condition were prepared and 3 images/well were taken. For preliminary adhesion experiments images were taken with a 10× objective, for the imaging assay 20× objective images were taken.
Multichannel images were saved as individual channel images in 8-bit tiff format. For analysis Hoechst channel images were thresholded using the triangle threshold. Touching nuclei of the binary image were further segmented using the watershed algorithm with the distance transform of the binary image as input and local maxima thereof as seeds. […]

[5] = 6-50 μM, 5/7 mM Ca/P, compared to the positive ctrl
[6] = RPTEC, 7 mM phosphate, 5 mM calcium, 24 h

In the case of `COCCOCCO[C@@H]1C(OP(=O)(O)O)[C@H](OCCOCCOC)[C@@H](OP(=O)(O)O)C(OP(=O)(O)O)[C@H]1OP(=O)(O)O` (stereo partly shown) [(OEG2)2-IP4], the pharmacokinetic profile [1] is listed as “favorable”, the “Ca/P-induced change in gene expression profile” value [2] is listed as “prevented” and the “efficacy on CaOx crystallization in solution” value [3] is listed as “limited efficacy”. The “number of dead cells” value [4, 5] was “dose-dependently reduced”, the single cell area [4, 5] was “dose-dependently reduced” and the single cell solidity [4, 5] was “increased”. The “total cell count/field of view” value [4, 5] was “increased”, the “total CaP area” value ([4]; 6 and 13 μM, 5/7 mM Ca/P, compared to the positive ctrl) was “reduction” and the “concentration achieving complete inhibition of CaP adhesion” value [4, 6] was 50 µM. The “concentration down to which CaP adhesion was drastically reduced” value [4, 6] was 12.5 µM.
